From PubChem BioAssay AID1963971 (Molecular Pharmacology Branch, DTP, NCI, 2024)

System: 953936-095-R-J2-PDC spheroids with HUVEC/MSC, viability
Test: Anticancer human tumor 953936-095-R-J2-PDC patient-derived cervical squamous cell carcinoma cell line growth inhibition [PI3K]
Conditions: for IC50: curve of first compound; for viability, T/C: stronger effect = lower value
How it was run: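 Multi-cell spheroids combine tumor cells with HUVEC and human MSCs, treated with targeted agents alone or with inavolisib, alpelisib, duvelisib or copanlisib. Concentrations fall in half-log steps from at or near clinical Cmax, or from 10 microM where Cmax is unknown; viability read-out.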

[1] = second compound 0.0316 µM, first compound 0.0316 µM
[2] = second compound 0.0316 µM, first compound 0.1 µM
[3] = second compound 0.0316 µM, first compound 0.316 µM
[4] = second compound 0.0316 µM, first compound 1 µM
[5] = second compound 0.0316 µM, first compound 3.16 µM
[6] = second compound 0.0316 µM, first compound 10 µM
[7] = second compound 0.1 µM, first compound 0.0316 µM
[8] = second compound 0.1 µM, first compound 0.1 µM
[9] = second compound 0.1 µM, first compound 0.316 µM
[10] = second compound 0.1 µM, first compound 1 µM
[11] = second compound 0.1 µM, first compound 3.16 µM
[12] = second compound 0.1 µM, first compound 10 µM
[13] = second compound 0.316 µM, first compound 0.0316 µM
[14] = second compound 0.316 µM, first compound 0.1 µM
[15] = second compound 0.316 µM, first compound 0.316 µM
[16] = second compound 0.316 µM, first compound 1 µM
[17] = second compound 0.316 µM, first compound 3.16 µM
[18] = second compound 0.316 µM, first compound 10 µM
[19] = second compound 1 µM, first compound 0.0316 µM
[20] = second compound 1 µM, first compound 0.1 µM
[21] = second compound 1 µM, first compound 0.316 µM
[22] = second compound 1 µM, first compound 1 µM
[23] = second compound 1 µM, first compound 3.16 µM
[24] = second compound 1 µM, first compound 10 µM
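Further: spheroids exposed to compounds for seven days before read-out.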

## CNC(=O)c1ccc(N2C(=S)N(c3ccc(C#N)c(C(F)(F)F)c3)C(=O)C2(C)C)cc1F + CC(Nc1ncnc2nc[nH]c12)c1cc2cccc(Cl)c2c(=O)n1-c1ccccc1
Second compound 0.0316 µM
  IC50: > 10 µM
Second compound 0.1 µM
  IC50: > 10 µM
Second compound 0.316 µM
  IC50: > 10 µM
Second compound 1 µM
  IC50: > 10 µM
Second compound 3.16 µM
  IC50: > 10 µM
Second compound 10 µM
  IC50: > 10 µM
[1]
  viability, T/C: 97.9%
[2]
  viability, T/C: 108%
[3]
  viability, T/C: 100%
[4]
  viability, T/C: 91.9%
[5]
  viability, T/C: 103%
[6]
  viability, T/C: 85.7%
[7]
  viability, T/C: 94.2%
[8]
  viability, T/C: 104%
[9]
  viability, T/C: 108%
[10]
  viability, T/C: 93%
[11]
  viability, T/C: 83.2%
[12]
  viability, T/C: 74.2%
[13]
  viability, T/C: 111%
[14]
  viability, T/C: 88.6%
[15]
  viability, T/C: 92.4%
[16]
  viability, T/C: 96.3%
[17]
  viability, T/C: 95.2%
[18]
  viability, T/C: 70.9%
[19]
  viability, T/C: 94.3%
[20]
  viability, T/C: 95.4%
[21]
  viability, T/C: 83.8%
[22]
  viability, T/C: 88.9%
[23]
  viability, T/C: 84.7%
[24]
  viability, T/C: 78%
Second compound 3.16 µM, first compound 0.0316 µM
  viability, T/C: 76.6%
Second compound 3.16 µM, first compound 0.1 µM
  viability, T/C: 83.1%
Second compound 3.16 µM, first compound 0.316 µM
  viability, T/C: 71.8%
Second compound 3.16 µM, first compound 1 µM
  viability, T/C: 82.9%
Second compound 3.16 µM, first compound 3.16 µM
  viability, T/C: 82.1%
Second compound 3.16 µM, first compound 10 µM
  viability, T/C: 61.2%
Second compound 10 µM, first compound 0.0316 µM
  viability, T/C: 62.6%
Second compound 10 µM, first compound 0.1 µM
  viability, T/C: 67.6%
Second compound 10 µM, first compound 0.316 µM
  viability, T/C: 66.6%
Second compound 10 µM, first compound 1 µM
  viability, T/C: 58.7%
Second compound 10 µM, first compound 3.16 µM
  viability, T/C: 58.5%
Second compound 10 µM, first compound 10 µM
  viability, T/C: 55%

## CC1(C)CCC(CN2CCN(c3ccc(C(=O)NS(=O)(=O)c4ccc(NCC5CCOCC5)c([N+](=O)[O-])c4)c(Oc4cnc5[nH]ccc5c4)c3)CC2)=C(c2ccc(Cl)cc2)C1 + COc1c(OCCCN2CCOCC2)ccc2c3n(c(=NC(=O)c4cnc(N)nc4)nc12)CCN3
Second compound 0.00316 µM
  IC50: 7.15 µM
Second compound 0.01 µM
  IC50: 5.43 µM
Second compound 0.0316 µM
  IC50: < 0.0316 µM
Second compound 0.1 µM
  IC50: < 0.0316 µM
Second compound 0.316 µM
  IC50: < 0.0316 µM
Second compound 1 µM
  IC50: < 0.0316 µM
Second compound 0.00316 µM, first compound 0.0316 µM
  viability, T/C: 82%
Second compound 0.00316 µM, first compound 0.1 µM
  viability, T/C: 84.2%
Second compound 0.00316 µM, first compound 0.316 µM
  viability, T/C: 93.8%
Second compound 0.00316 µM, first compound 1 µM
  viability, T/C: 96.2%
Second compound 0.00316 µM, first compound 3.16 µM
  viability, T/C: 97.5%
Second compound 0.00316 µM, first compound 10 µM
  viability, T/C: 33.2%
Second compound 0.01 µM, first compound 0.0316 µM
  viability, T/C: 69.6%
Second compound 0.01 µM, first compound 0.1 µM
  viability, T/C: 78.1%
Second compound 0.01 µM, first compound 0.316 µM
  viability, T/C: 68%
Second compound 0.01 µM, first compound 1 µM
  viability, T/C: 74.7%
Second compound 0.01 µM, first compound 3.16 µM
  viability, T/C: 70.5%
Second compound 0.01 µM, first compound 10 µM
  viability, T/C: 26.6%
[1]
  viability, T/C: 42%
[2]
  viability, T/C: 50%
[3]
  viability, T/C: 41.5%
[4]
  viability, T/C: 40.1%
[5]
  viability, T/C: 44.1%
[6]
  viability, T/C: 21.6%
[7]
  viability, T/C: 18.2%
[8]
  viability, T/C: 17.8%
[9]
  viability, T/C: 18.3%
[10]
  viability, T/C: 17.1%
[11]
  viability, T/C: 15.6%
[12]
  viability, T/C: 6.6%
[13]
  viability, T/C: 6.6%
[14]
  viability, T/C: 7.22%
[15]
  viability, T/C: 7.33%
[16]
  viability, T/C: 5.61%
[17]
  viability, T/C: 5.63%
[18]
  viability, T/C: 3.88%
[19]
  viability, T/C: 1.61%
[20]
  viability, T/C: 1.39%
[21]
  viability, T/C: 1.49%
[22]
  viability, T/C: 1.3%
[23]
  viability, T/C: 1.52%
[24]
  viability, T/C: 0.86%
